The values below come from ChEMBL document CHEMBL1201862, “PubChem BioAssay data set” (2004).

The target of one experiment is T1, Aminopeptidase N (Plasmodium falciparum FcB1/Columbia, UniProt O96935).
T1 sequence (O96935 whole entry): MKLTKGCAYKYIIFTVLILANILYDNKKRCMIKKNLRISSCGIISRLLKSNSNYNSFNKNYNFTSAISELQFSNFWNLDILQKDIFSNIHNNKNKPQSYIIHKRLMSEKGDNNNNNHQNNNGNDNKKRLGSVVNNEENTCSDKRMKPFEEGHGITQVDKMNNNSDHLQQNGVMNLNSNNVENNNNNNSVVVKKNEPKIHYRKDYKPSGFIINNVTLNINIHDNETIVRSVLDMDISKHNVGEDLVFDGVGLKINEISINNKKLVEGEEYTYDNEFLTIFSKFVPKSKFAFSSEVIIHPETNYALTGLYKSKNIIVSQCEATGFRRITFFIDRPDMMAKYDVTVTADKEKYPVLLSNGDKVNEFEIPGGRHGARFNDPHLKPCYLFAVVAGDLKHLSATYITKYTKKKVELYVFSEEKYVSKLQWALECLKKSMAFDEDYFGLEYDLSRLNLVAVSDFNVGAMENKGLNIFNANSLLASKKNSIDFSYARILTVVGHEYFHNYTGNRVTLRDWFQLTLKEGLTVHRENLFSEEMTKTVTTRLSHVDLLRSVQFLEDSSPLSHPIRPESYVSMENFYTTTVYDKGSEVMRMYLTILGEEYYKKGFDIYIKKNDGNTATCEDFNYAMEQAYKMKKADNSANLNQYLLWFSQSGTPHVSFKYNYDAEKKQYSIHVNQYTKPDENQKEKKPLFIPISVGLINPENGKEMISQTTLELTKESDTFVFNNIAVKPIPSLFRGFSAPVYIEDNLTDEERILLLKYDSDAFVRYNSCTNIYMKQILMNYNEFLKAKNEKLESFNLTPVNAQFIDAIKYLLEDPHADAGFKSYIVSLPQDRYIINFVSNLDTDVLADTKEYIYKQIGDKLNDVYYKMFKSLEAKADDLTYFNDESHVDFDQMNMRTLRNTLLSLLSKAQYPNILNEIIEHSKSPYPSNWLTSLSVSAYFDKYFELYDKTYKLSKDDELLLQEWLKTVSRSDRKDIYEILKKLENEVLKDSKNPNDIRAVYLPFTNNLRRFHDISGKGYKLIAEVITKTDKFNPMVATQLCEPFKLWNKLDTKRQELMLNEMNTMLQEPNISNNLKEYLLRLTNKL
Briefly: P. falciparum M1AAP inhibitors, biochemical, fluorogenic H-Leu-NHMec substrate, 1536-well (AID 1445). Also on record: species or system Plasmodium falciparum 3D7, 3D7.

For experiment [1], the target named is T2, Runt-related transcription factor 1/Core-binding factor subunit beta (Homo sapiens, UniProt Q01196+Q13951). The experiment is described as follows: inhibitors of RUNX1 Runt–CBFb-SMMHC binding, primary screen, biochemical, FRET, Cerulean-Runt, Venus-CBFb-SMMHC, uHTS (AID 1434).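 Note: partner is the CBFb-SMMHC leukemia fusion protein rather than wild-type CBFb.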 It counts as protein assay.
Experiment [2] deals with T2, Runt-related transcription factor 1/Core-binding factor subunit beta. The experiment is described as follows: inhibitors of RUNX1 Runt–CBFb-SMMHC binding, biochemical, TR-FRET (AID 1438). It counts as protein assay. For orientation: TR-FRET usually uses a lanthanide donor and a delayed reading to cut background.
Experiment [3] deals with Intestinal-type alkaline phosphatase (Homo sapiens, UniProt P09923). The experiment is described as follows: human intestinal alkaline phosphatase activators, dose response, biochemical, luminescence, uHTS hits (AID 463120). Type of experiment: functional.
Experiment [4] concerns the target T3, High affinity choline transporter 1 (Homo sapiens, UniProt Q9GZV3).
T3 sequence (Q9GZV3 whole entry): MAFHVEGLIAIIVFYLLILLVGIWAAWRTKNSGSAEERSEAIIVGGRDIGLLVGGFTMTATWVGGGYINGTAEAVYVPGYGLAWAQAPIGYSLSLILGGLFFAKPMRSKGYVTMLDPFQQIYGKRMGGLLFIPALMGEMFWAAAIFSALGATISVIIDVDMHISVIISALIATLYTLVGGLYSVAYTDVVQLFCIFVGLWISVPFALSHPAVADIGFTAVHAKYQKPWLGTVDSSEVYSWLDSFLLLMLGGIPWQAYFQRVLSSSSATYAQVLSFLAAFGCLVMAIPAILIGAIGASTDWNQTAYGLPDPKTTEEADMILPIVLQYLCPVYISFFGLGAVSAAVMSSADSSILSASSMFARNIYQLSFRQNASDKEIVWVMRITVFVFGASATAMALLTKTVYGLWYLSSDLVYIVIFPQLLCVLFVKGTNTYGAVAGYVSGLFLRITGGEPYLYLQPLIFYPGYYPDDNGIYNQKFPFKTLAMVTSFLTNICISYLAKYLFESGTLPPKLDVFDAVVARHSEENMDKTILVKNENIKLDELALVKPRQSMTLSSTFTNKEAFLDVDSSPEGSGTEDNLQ
Briefly: CHT inhibitors, dose response, cell-based, 5-point CRC, membrane potential dye (AID 504840). It counts as functional.

For another experiment, the target named is T4, Bcl-2-related protein A1 (Mus musculus, UniProt Q07440).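 Note: confirmatory dose–response counterscreen on Bfl-1, used to check hits from a UBC13 polyubiquitin inhibitor campaign.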
T4 sequence (Q07440 whole entry): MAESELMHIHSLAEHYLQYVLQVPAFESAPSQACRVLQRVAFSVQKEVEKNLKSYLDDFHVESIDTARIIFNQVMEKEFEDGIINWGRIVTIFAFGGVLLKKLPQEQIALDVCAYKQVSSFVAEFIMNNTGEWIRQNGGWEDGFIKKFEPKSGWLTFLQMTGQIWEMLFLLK
It counts as functional.

The target of experiment [5] is T5, Ubiquitin-conjugating enzyme E2 N (Homo sapiens, UniProt P61088).
T5 sequence (P61088 whole entry): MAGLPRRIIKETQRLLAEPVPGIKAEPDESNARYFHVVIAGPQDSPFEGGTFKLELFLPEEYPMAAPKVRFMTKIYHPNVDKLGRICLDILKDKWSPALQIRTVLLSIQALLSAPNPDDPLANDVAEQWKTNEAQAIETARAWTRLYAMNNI
It counts as functional.

Experiment [6] deals with T5, Ubiquitin-conjugating enzyme E2 N. Type of experiment: functional. This is another data set of the same source.
In experiment [7] the target is T6, G-protein coupled receptor 35 (Homo sapiens, UniProt Q9HC97). The experiment is described as follows: SAR analysis of Agonists of the GPR35 Receptor using an Image-Based Assay - Set 4. [Related pubchem assays (depositor defined):AID2013, AID2026]. It counts as functional.
Experiment [8] addresses T7, Cannabinoid receptor 1 (Homo sapiens, UniProt P21554). The experiment is described as follows: SAR analysis of agonists of the Cannabinoid Receptor 1 using an Image-Based Assay - Set 4. [Related pubchem assays (depositor defined):AID2013, AID2026]. It counts as functional.
Experiment [9] addresses T6, G-protein coupled receptor 35. Briefly: SAR analysis of Antagonists of the GPR35 Receptor using an Image-Based Assay - Set 6. [Related pubchem assays (depositor defined):AID2013, AID2026]. It counts as functional.
Experiment [10] has as its target T7, Cannabinoid receptor 1. Briefly: SAR analysis of antagonists of the Cannabinoid Receptor 1 using an Image-Based Assay - Set 4. [Related pubchem assays (depositor defined):AID2013, AID2026]. It counts as functional.
The target in experiment [11] is G-protein coupled receptor 55 (Homo sapiens, UniProt Q9Y2T6). The experiment is described as follows: SAR Analysis of Selective Antagonists of GPR55 using an Image-Based Assay - Set 4. [Related pubchem assays (depositor defined):AID2013, AID2026]. It counts as functional.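 Note: antagonism of response to 5 µM lysophosphatidylinositol agonist.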
Experiment [12] concerns the target T8, Cannabinoid receptor 2 (Homo sapiens, UniProt P34972). Briefly: SAR analysis of antagonists of the Cannabinoid Receptor 2 using an Image-Based Assay - Set 3. [Related pubchem assays (depositor defined):AID2013, AID2026]. Type of experiment: functional.
The target of experiment [13] is T8, Cannabinoid receptor 2. The experiment is described as follows: SAR analysis of agonists of the Cannabinoid Receptor 2 using an Image-Based Assay - Set 3. [Related pubchem assays (depositor defined):AID2013, AID2026]. It counts as functional.

SMILES strings stand for the structures. The source made the active and inactive calls. Some results are limits rather than exact numbers.

Broadly, the IC50 is the midpoint of a concentration-inhibition curve. For orientation: EC50 means the midpoint of the concentration-response curve.

T6 sequence (Q9HC97 whole entry): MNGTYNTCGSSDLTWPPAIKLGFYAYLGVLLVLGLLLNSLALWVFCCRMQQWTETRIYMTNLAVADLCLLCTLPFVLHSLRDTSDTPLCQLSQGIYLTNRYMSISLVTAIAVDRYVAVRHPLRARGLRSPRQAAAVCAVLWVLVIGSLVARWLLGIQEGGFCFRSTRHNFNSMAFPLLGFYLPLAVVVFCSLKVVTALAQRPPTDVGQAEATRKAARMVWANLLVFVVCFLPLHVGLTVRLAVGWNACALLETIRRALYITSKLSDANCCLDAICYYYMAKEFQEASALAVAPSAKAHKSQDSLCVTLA
T2 sequence (Q01196 whole entry, the tested form may be a part): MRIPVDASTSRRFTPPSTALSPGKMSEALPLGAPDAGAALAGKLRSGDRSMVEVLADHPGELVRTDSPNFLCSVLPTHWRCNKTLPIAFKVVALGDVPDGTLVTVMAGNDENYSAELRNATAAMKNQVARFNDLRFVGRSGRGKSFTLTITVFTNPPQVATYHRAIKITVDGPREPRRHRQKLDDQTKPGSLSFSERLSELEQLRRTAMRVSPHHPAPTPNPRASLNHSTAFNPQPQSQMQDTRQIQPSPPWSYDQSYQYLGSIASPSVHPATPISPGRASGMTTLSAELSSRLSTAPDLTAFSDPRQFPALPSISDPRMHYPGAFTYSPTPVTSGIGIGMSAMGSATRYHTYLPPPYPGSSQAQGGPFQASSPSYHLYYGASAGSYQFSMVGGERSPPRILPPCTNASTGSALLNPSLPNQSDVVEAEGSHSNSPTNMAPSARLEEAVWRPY
T2 sequence (Q13951 whole entry, the tested form may be a part): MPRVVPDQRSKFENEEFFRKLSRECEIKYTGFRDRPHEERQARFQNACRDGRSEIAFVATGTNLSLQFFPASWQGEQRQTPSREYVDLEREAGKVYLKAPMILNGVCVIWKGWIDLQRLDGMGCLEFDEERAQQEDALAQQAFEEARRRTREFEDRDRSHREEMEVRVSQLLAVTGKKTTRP
T7 sequence (P21554 whole entry): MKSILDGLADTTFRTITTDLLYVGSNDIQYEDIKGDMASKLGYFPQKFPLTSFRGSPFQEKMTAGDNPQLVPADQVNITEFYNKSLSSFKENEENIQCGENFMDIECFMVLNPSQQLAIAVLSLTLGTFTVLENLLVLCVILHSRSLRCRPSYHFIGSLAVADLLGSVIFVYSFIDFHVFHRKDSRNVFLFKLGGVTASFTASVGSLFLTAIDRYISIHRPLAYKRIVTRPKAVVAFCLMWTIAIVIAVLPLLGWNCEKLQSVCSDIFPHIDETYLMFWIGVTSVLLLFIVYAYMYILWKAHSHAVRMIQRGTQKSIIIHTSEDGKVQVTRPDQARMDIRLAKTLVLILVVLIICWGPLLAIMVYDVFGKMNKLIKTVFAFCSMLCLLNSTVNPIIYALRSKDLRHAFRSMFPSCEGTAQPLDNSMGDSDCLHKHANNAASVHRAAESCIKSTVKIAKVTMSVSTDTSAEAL
T8 sequence (P34972 whole entry): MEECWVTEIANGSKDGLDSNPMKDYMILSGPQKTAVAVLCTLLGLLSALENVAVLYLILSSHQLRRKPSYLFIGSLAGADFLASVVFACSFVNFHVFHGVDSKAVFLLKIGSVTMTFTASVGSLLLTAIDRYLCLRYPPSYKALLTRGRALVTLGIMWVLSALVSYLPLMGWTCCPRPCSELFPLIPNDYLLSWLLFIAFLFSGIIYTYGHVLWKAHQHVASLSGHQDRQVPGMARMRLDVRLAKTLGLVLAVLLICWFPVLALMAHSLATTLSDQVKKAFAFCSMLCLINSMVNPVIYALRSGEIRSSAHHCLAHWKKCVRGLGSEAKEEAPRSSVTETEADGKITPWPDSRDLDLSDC
Sequence of Intestinal-type alkaline phosphatase (P09923 whole entry): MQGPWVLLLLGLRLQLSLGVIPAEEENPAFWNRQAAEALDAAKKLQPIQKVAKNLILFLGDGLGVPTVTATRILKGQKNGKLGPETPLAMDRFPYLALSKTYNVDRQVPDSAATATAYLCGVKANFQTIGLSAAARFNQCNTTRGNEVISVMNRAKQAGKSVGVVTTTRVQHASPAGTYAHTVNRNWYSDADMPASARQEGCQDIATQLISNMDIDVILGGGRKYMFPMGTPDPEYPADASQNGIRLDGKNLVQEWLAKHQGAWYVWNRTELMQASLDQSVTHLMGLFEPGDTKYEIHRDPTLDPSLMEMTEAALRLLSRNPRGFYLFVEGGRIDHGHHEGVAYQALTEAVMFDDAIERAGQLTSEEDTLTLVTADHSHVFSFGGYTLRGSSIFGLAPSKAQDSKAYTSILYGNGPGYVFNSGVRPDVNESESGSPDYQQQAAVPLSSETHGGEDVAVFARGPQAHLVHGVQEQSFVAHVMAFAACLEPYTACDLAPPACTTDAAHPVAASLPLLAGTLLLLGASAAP
Sequence of G-protein coupled receptor 55 (Q9Y2T6 whole entry): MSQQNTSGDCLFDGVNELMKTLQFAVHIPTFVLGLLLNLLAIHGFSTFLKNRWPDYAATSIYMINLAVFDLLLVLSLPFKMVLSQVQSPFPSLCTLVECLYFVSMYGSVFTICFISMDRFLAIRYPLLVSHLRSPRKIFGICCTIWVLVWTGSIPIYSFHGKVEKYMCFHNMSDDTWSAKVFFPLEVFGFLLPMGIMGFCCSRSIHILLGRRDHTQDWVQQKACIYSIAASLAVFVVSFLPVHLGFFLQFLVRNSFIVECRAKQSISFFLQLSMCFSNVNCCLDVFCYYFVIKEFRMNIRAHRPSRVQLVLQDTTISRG

For the molecule `CC1=CC(c2ccc(Cl)cc2)N2NC(NS(=O)(=O)c3ccc(C)cc3)=NC2=N1` (stereo not given), the IC50 at Aminopeptidase N was 104 µM (active); in experiment [1], 23.6 µM (active); in experiment [2], 31.5 µM (active).

As to `OC1CN=C2Sc3ccccc3N2C1` (stereo not given), the EC50 in experiment [3] is > 100 µM (inactive). Besides, in experiment [4], the IC50 is 15.1 µM (active).

`Cc1ccc(C(=O)NC(C)c2ccc(-n3ccnc3)cc2)cc1S(=O)(=O)N1CCOCC1` (stereo not given): the IC50 at Bcl-2-related protein A1 is > 20 µM (inactive); in experiment [5], 17.3 µM (active); in experiment [6] it was 11.5 µM (active).

As for `Cc1ccc(-n2cc3c(-c4ccccc4)nnc(C)c3n2)cc1`, the EC50 (in [7]; at Cannabinoid receptor 1 [8]; at Cannabinoid receptor 2 [13]) was > 32 µM (inactive) each time. In addition, the IC50 was > 32 µM (inactive) in experiment [9], 8.66 µM (active) on Cannabinoid receptor 1 [10], 6.89 µM (active) in experiment [11] and > 32 µM (inactive) at Cannabinoid receptor 2 [12].
